Results reported in ChEMBL document CHEMBL1155992, “Bioisosteric replacement of the hydrazide pharmacophore of the cannabinoid-1 receptor antagonist SR141716A. Part I: potent, orally-active 1,4-disubstituted imidazoles” (Bioorg Med Chem Lett, 2009).

Tests used:
Homo sapiens = species: Homo sapiens; assay: Selectivity index, ratio of Ki for human CB2 receptor to Ki for human CB1 receptor
Cannabinoid receptor 1 [1] = molecular target: Cannabinoid receptor 1 (Rattus norvegicus, UniProt P20272); assay: Displacement of [3H]SR141716A from rat brain CB1 receptor
Sequence of Cannabinoid receptor 1 (Rattus norvegicus, UniProt P20272) (P20272 whole entry): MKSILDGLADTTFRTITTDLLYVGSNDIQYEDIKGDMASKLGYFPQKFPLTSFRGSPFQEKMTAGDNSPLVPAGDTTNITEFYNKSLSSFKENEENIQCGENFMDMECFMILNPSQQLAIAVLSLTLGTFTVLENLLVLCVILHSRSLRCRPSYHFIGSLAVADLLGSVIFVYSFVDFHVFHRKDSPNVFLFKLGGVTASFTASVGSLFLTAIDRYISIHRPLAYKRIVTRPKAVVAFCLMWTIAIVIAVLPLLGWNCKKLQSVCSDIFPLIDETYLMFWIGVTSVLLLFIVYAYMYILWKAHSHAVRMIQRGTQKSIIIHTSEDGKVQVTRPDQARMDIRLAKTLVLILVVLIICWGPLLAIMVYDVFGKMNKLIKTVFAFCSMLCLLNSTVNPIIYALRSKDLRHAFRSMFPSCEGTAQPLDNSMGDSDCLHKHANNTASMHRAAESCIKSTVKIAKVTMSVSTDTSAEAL

Cannabinoid receptor 1 [2] = molecular target: Cannabinoid receptor 1 (Homo sapiens, UniProt P21554); assay: Antagonist activity at human CB1 receptor transfected in CHO-K1cells by GTPgamma[35S] binding assay; assay type: functional, cell-based, CHO-K1
Sequence of Cannabinoid receptor 1 (Homo sapiens, UniProt P21554) (P21554 whole entry): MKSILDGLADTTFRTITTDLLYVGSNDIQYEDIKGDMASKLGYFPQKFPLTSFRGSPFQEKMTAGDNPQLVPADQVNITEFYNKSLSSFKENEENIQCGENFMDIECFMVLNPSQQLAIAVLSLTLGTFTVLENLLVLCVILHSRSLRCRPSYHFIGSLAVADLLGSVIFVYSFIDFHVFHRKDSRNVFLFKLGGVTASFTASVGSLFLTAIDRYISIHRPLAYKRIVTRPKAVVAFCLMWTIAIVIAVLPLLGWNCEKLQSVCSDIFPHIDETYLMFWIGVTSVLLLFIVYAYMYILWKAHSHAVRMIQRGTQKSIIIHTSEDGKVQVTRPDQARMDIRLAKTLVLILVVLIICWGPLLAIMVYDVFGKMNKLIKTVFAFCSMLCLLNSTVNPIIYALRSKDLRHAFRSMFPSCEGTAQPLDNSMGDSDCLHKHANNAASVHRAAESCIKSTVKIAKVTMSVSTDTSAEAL

[3] = Intrinsic clearance in human liver microsomes; assay type: ADME, Microsome
Cytochrome P450 2D6 = Cytochrome P450 2D6 (Homo sapiens, UniProt P10635); assay: Inhibition of CYP2D6; assay type: ADME
Sequence of Cytochrome P450 2D6 (P10635 whole entry): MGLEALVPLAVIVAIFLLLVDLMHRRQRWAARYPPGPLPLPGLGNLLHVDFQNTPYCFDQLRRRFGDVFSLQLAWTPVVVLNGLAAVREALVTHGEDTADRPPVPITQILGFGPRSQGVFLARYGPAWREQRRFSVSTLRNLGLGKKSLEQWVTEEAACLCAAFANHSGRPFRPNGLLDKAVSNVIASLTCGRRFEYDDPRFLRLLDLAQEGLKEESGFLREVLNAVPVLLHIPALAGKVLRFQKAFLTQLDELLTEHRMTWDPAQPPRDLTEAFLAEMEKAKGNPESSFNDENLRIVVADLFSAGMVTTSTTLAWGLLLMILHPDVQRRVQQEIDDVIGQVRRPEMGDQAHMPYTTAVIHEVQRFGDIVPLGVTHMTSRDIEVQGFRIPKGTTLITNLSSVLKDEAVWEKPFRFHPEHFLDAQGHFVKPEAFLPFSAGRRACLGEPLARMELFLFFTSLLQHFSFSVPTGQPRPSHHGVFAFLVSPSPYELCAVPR

Mus musculus [4] = assay: Effect on hypothermic activity in CP-55940-induced ICR mouse assessed as reduction in body temperature at 10 mg/kg, ip measured after 65 mins of CP-55940 challenge by tetrad assay; assay type: functional; set-up: scale not given: the % may be the effect or the level left; conditions: route intraperitoneal
Cytochrome P450 2C9 = Cytochrome P450 2C9 (Homo sapiens, UniProt P11712); assay: Inhibition of CYP2C9; assay type: ADME
Sequence of Cytochrome P450 2C9 (P11712 whole entry): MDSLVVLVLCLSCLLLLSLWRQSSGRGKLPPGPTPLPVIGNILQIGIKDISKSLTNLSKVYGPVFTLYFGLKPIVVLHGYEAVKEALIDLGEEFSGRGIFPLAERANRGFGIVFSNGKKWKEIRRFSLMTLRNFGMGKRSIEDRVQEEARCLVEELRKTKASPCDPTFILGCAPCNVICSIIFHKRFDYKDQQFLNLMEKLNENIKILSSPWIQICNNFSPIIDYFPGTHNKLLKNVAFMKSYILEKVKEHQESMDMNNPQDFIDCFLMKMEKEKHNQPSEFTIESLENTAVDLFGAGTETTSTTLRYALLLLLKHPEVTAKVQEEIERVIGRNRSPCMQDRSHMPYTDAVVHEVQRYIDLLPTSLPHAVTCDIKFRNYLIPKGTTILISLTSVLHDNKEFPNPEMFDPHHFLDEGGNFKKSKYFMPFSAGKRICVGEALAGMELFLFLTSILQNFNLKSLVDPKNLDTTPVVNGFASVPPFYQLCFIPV

Cytochrome P450 1A2 = molecular target: T1, Cytochrome P450 1A2 (Homo sapiens, UniProt P05177); assay: Inhibition of CYP1A2; assay type: ADME
T1 sequence (P05177 whole entry): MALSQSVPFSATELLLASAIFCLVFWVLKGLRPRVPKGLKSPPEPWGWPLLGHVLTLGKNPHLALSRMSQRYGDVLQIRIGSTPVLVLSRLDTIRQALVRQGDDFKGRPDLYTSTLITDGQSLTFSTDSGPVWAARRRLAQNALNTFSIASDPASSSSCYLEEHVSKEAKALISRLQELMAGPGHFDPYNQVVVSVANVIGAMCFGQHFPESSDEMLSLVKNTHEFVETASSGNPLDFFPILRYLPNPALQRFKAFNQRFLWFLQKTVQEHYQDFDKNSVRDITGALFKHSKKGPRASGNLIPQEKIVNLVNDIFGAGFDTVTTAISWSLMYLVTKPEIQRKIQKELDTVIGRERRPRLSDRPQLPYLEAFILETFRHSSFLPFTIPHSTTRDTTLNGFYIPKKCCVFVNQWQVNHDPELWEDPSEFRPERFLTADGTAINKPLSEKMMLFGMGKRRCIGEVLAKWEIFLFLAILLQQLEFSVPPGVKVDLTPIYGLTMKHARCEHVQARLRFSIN

Mus musculus [5] = assay: Analgesic activity in CP-55940-induced ICR mouse assessed as reduction in latency to jump, kick, lick, flick paw at 10 mg/kg, ip by hotplate assay; assay type: functional; set-up: scale not given: the % may be the effect or the level left; conditions: route intraperitoneal
Rattus norvegicus [6] = assay: Clearance in rat at 2 mg/kg, iv; assay type: ADME, organism-based; set-up: dose 2 mg/kg, route intravenous; conditions: in vivo
[7] = Oral bioavailability in rat at 5 mg/kg; assay type: ADME, organism-based; conditions: in vivo
[8] = Volume of distribution in rat at 2 mg/kg, iv; assay type: ADME, organism-based; set-up: dose 2 mg/kg, route intravenous; conditions: in vivo
Rattus norvegicus [9] = assay: Antiobesity activity in overnight fasted Sprague-Dawley rat assessed as reduction in food intake in at 3 mg/kg, po; assay type: functional; set-up: scale not given: the % may be the effect or the level left
Cytochrome P450 2C19 = Cytochrome P450 2C19 (Homo sapiens, UniProt P33261); assay: Inhibition of CYP2C19; assay type: ADME
Sequence of Cytochrome P450 2C19 (P33261 whole entry): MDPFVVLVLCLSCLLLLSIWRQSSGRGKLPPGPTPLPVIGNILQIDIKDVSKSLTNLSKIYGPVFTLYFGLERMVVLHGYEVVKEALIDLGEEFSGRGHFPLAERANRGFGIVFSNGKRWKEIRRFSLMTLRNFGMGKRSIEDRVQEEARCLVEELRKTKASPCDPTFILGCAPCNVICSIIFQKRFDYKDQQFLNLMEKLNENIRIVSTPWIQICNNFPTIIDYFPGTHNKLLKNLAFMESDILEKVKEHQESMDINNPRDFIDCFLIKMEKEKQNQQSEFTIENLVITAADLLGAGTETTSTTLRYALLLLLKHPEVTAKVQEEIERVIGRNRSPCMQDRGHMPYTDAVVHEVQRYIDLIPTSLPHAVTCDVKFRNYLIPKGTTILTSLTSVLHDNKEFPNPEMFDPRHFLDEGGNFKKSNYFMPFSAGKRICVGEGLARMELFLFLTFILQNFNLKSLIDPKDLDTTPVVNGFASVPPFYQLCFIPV

Rattus norvegicus [10] = assay: Antiobesity activity in overnight fasted Sprague-Dawley rat assessed as reduction in food intake in at 10 mg/kg, po; assay type: functional; set-up: scale not given: the % may be the effect or the level left
[11] = Half life in rat at 2 mg/kg, iv; assay type: ADME, organism-based; set-up: dose 2 mg/kg, route intravenous; conditions: in vivo
Cytochrome P450 3A4 = Cytochrome P450 3A4 (Homo sapiens, UniProt P08684); assay: Inhibition of CYP3A4; assay type: ADME
Sequence of Cytochrome P450 3A4 (P08684 whole entry): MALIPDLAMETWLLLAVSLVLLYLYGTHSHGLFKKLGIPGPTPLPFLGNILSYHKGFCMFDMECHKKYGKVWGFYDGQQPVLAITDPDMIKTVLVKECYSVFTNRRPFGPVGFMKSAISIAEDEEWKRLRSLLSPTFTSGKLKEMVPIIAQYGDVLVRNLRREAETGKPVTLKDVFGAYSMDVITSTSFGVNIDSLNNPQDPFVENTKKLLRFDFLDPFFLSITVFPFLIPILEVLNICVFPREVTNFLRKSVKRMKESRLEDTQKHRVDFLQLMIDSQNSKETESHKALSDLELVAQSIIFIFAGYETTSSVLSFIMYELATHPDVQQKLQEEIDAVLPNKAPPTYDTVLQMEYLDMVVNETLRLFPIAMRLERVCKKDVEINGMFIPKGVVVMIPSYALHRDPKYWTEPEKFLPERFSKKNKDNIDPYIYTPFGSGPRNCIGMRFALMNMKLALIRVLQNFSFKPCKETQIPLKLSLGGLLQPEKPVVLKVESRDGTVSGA

Compound | Ratio Ki (Homo sapiens) | Ki (Cannabinoid receptor 1 [1]) | Ki (Cannabinoid receptor 1 [2]) | other results
Cc1c(-c2cn(Cc3ccccc3)cn2)nn(-c2ccc(Cl)cc2Cl)c1-c1ccc(Cl)cc1 | > 100 | 14 nM |  | 
CCn1cnc(-c2nn(-c3ccc(Cl)cc3Cl)c(-c3ccc(Cl)cc3)c2C)c1 | > 100 | 20 nM |  | 
Cc1c(-c2cn(C(C)(C)c3ccccc3)cn2)nn(-c2ccccc2Cl)c1-c1ccc(Cl)cc1 | > 100 | 1.1 nM | 0.1 nM | 
Cc1c(-c2ncn(C(C)C)c2C)nn(-c2ccc(Cl)cc2Cl)c1-c1ccc(Cl)cc1 | > 100 | 5.7 nM | 9 nM | 
CCc1c(-c2nn(-c3ccc(Cl)cc3Cl)c(-c3ccc(Cl)cc3)c2C)ncn1C(C)C | > 100 | 38 nM |  | 
Cc1c(-c2cn(C(C)(C)C)cn2)nn(-c2ccc(Cl)cc2Cl)c1-c1ccc(Cl)cc1 | > 100 | 14 nM |  | 
Cc1c(-c2cn(-c3ccccc3)cn2)nn(-c2ccccc2Cl)c1-c1ccc(Cl)cc1 | > 100 | 19 nM | 3.8 nM | 
Cc1c(-c2cn(C3CCC3)cn2)nn(-c2ccc(Cl)cc2Cl)c1-c1ccc(Cl)cc1 | > 100 | 10 nM | 5 nM | 
Cc1c(-c2cn(C(C)C)cn2)nn(-c2ccccc2Cl)c1-c1ccc(Cl)cc1 | > 100 | 5.3 nM | 7.6 nM | IC50 (Cytochrome P450 2D6): > 10000 nM; Activity (Mus musculus [4]): 33%; IC50 (Cytochrome P450 2C9): > 10000 nM; IC50 (Cytochrome P450 1A2): > 10000 nM; Activity (Mus musculus [5]): 56%; clearance (Rattus norvegicus [6]): 21 mL/min/kg; bioavailability [7]: 42%; Vd [8]: 2.5 L/kg; Activity (Rattus norvegicus [9]): -31%; IC50 (Cytochrome P450 2C19): > 10000 nM; Activity (Rattus norvegicus [10]): 44%; half-life [11]: 1.5 h; IC50 (Cytochrome P450 3A4): > 10000 nM
Cc1c(-c2ncn(C(C)C)c2CO)nn(-c2ccc(Cl)cc2Cl)c1-c1ccc(Cl)cc1 | > 100 | 19 nM |  | 
Cc1c(-c2cn(C3CCOCC3)cn2)nn(-c2ccc(Cl)cc2Cl)c1-c1ccc(Cl)cc1 | > 100 | 25 nM |  | CLint scaled [3]: < 7 mL/min/kg
Cc1c(-c2nc[nH]c2C(C)C)nn(-c2ccccc2Cl)c1-c1ccc(Cl)cc1 | > 100 | 31 nM |  | 

Continued, in another order:

Ratio Ki (Homo sapiens) | Ki (Cannabinoid receptor 1 [1]) | Ki (Cannabinoid receptor 1 [2]) | Compound | other results
> 100 | 9.5 nM | 5.2 nM | Cc1c(-c2ncc(C(C)C)[nH]2)nn(-c2ccc(Cl)cc2Cl)c1-c1ccc(Cl)cc1 | CLint scaled [3]: 42.5 mL/min/kg
> 100 | 7.4 nM | 7.9 nM | Cc1c(-c2cn(C3CC3)cn2)nn(-c2ccccc2Cl)c1-c1ccc(Cl)cc1 | 
> 100 | 8.6 nM | 4.7 nM | Cc1c(-c2cn(C3CCCCC3)cn2)nn(-c2ccc(Cl)cc2Cl)c1-c1ccc(Cl)cc1 | 
> 100 | 7.2 nM | 9.5 nM | Cc1c(-c2cnc(C(C)C)[nH]2)nn(-c2ccc(Cl)cc2Cl)c1-c1ccc(Cl)cc1 | CLint scaled [3]: 42.5 mL/min/kg
> 100 | 4.9 nM | 9 nM | Cc1c(-c2cn(C(C)C)cn2)nn(-c2ccc(Cl)cc2Cl)c1-c1ccc(Cl)cc1 | CLint scaled [3]: 14 mL/min/kg
> 100 | 1.8 nM | 0.1 nM | Cc1c(-c2cn(C(C)(C)c3ccccc3)cn2)nn(-c2ccc(Cl)cc2Cl)c1-c1ccc(Cl)cc1 | 
